{"source": "paper PMC3664642", "about": "“A Peptide against Soluble Guanylyl Cyclase α1: A New Approach to Treating Prostate Cancer” (PLoS ONE, 2013)", "key": {"LNCaP cells [1]": {"test_system": "LNCaP cells", "assay": "Dependence of cytotoxicity on NO signaling, LNCaP cells (MTT)", "type": "cell-based", "conditions": "for effect of C-PTIO on cytotoxicity of Peptide A-8R: Fig. S1D", "method": "(§1) For proliferation, cells were grown in medium containing 2% FBS extracted with dextran-coated charcoal (DCC). 48 hours later, ethanol or 1 nM R1881 was added to the cells followed by peptide treatment. The MTT assay (Sigma) was used as before to determine cell number. For apoptosis, 5000 cells were seeded in 96-well plates and treated with Vehicle (DMSO), Peptide A-8R (25 µM), Etoposide (50 µM) (Sigma) at different time points. The Caspase (3/7) activity was measured using Apo-ONE Homogeneous Caspase-3/7 assay kit (Promega). PARP cleavage was also used to measure apoptosis, and is described below.\n(§2) (A) Whole-cell extracts from LNCaP cells treated with Vehicle, Peptide A-8R, or C-8R were subjected to IP using an anti-sGCα1 or anti-sGCβ1 antibody and then probed by Western blotting for sGCα1 (Upper) or sGCβ1 (Lower). Input represents amount of sGCα1 or sGCβ1 found in extracts. (B) LNCaP cells grown in the absence or presence of 1 nM R1881 were treated with Vehicle, 20 µM Peptide A-8R, 20 µM C-8R, or 8-Br-cGMP and monitored for cGMP levels using the cGMP E1A kit (Enzo Life Sciences). (C) LNCaP cells grown in the absence or presence of 8-Br-cGMP were treated with Vehicle, Peptide A-8R, or ODQ and monitored for cell density using the MTT assay. (D) LNCaP cells were treated with Vehicle or different concentrations of Peptide A-8R and C-PTIO and monitored for cell density. Bar graphs represent averages of three independent experiments plus standard deviations. Asterisks indicate statistical significance (P<0.04). (TIF) Click here for additional data file."}, "[2]": {"test_system": "Caspase 3/7 activity in LNCaP cells", "assay": "Caspase 3/7 assay, LNCaP cells", "type": "cell-based", "conditions": "Peptide 10 µM, Etoposide 20 µM, 24 hrs, Fig. 5A", "method": "as §1\nFigure 5 Peptide A-8R induces apoptosis of prostate cancer cells. (A) LNCaP, (B) PC-3, or (C) Cos cells were treated with Vehicle, Peptide A-8R (10 µM), or Etoposide (20 µM) for 0–24 hrs and subjected to a Caspase assay to measure apoptosis. Bar graphs represent averages of three independent experiments plus standard deviations. All activities are relative to the first condition, and this activity was set to 1. Asterisks indicate statistical significance (P<0.005). (D) LNCaP cells were treated with Vehicle, Peptide C-8R, Peptide A-8R, or Etoposide (each drug at 50 µM) for 8 hrs and monitored for apoptosis by measuring PARP cleavage using Western blotting. Note that β-actin was used to control for protein loading.\nSupplementary file pone.0064189.s005.tif: Figure S5 ROS generation is not induced by Peptide A-8R in PC-3 cells and Peptide C-8R in LNCaP cells. (A) PC-3 cells were treated with Vehicle or different concentrations of Peptide A-8R or Peptide C-8R, as shown, or (B) LNCaP cells were treated with Vehicle or different concentrations of Peptide A-8R or Peptide C-8R, or H2O2 and monitored for ROS generation after 0–30 (A) or 30 (B) min. (C) LNCaP cells were treated with Vehicle, Peptide C-8R (10 µM), Peptide A-8R (10 µM), or Etoposide (100 µM) for 0–8 hrs and subjected to a Caspase assay to measure apoptosis. Bar graphs represent averages of three independent experiments plus standard deviations. (C) All activities are relative to the first condition, and this activity was set to either 1. Asterisks indicate statistical significance (P<0.006) of all values compared to Vehicle (B) or to 0 hour (C). (TIF) Click here for additional data file."}, "LNCaP cells [3]": {"test_system": "LNCaP cells", "assay": "Proliferation/cytotoxicity, LNCaP cells (MTT)", "type": "cell-based", "conditions": "PI3K-AKT inhibitor; MTT; Fig. S3A; averages of three independent experiments", "method": "LNCaP, C81, PC-3 and Cos cells were grown as previously described. CWR-22Rv1 cells were cultured in RMPI-1640 medium with 10% FBS and 50 µg/ml Gentamicin (Gibco). Control siRNA, sGCα1 siRNA and AKT siRNA (Dharmacon) at 50 nM final concentration was transfected into cells using Lipofectamine siMAX (Invitrogen).\nas §1\n(A) Four peptides were designed targeting sGCα1, with each peptide containing eight arginines at the C-terminus for membrane translocation. (B) LNCaP cells were grown in 10% serum under different concentrations of the four peptides, as shown. Cell number was measured after 0–4 days of incubation. Data points represent averages of three independent experiments plus standard deviations. Asterisks indicate statistical significance (P<0.0002) of Peptide A activity, relative to Vehicle.\nFigure 2 Peptide A-8R interacts with sGCα1 in prostate cancer cells. (A) LNCaP cells were treated with 25 µM Biotin-labeled Peptide A-8R for 2 hrs and subjected to immunocytochemistry using anti-sGCα1 or anti-Biotin antibody to measure subcellular co-localization of endogenous sGCα1 and Peptide A-8R. DAPI was used to stain nuclei. (B) LNCaP cytosolic extracts were incubated with Peptide A-8R-Biotin and subjected to purification using streptavidin-agarose. This pull-down experiment was repeated with competing excess amount of unlabeled Peptide C-8R or Peptide A-8R. […] Co-purified Peptide A-8R-FITC was quantified by measuring fluorescence signal emission. […] Cell number was measured after 0–48 hrs of incubation. […]"}, "C81 cells [4]": {"test_system": "C81 cells", "assay": "NAC rescue of proliferation of Peptide A-8R-treated cells (MTT)", "type": "cell-based", "conditions": "for NAC rescue of proliferation: C81, NAC 1 or 5 mM, 2 h pretreatment, 0–6 days", "method": "as §1\nIntracellular ROS levels were evaluated using the fluorescent probe 5-(and-6)-chloromethyl-2′,7′-dichlorodihydrofluorescein diacetate (CM-H2DCFDA) (Invitrogen). After treatments with Peptide A-8R, C81 cells were loaded with 20 µM CM-H2DCFDA and incubated at 37°C for 30 min in the dark. Cells were then washed with PBS and fluorescence was measured at the excitation and emission wavelengths of 490 and 535 nm, respectively, using a multi-well fluorescence plate reader. For NAC (N-acetyl cysteine) (Sigma) rescue experiment, cells were pretreated with 1 or 5 mM NAC for 2 hours before adding Peptide A-8R.\n(§3) Figure 4 Peptide A-8R kills prostate cancer cells by mediating ROS generation. (A) C81 cells were treated with Vehicle or different µMolar concentrations of Peptide A-8R and without or with 0–5 mM NAC and monitored for ROS generation after 0–30 min as measured by fluorescence intensity (FI). Bar graphs represent averages of three independent experiments plus standard deviations. Note that asterisks on bar graphs found with NAC are compared to equivalent data without NAC. (B) C81 cells were treated with Vehicle or different concentrations of Peptide A-8R, as shown, and 0–5 mM NAC, as shown, and monitored for cell number after 0–6 days of incubation as measured by MTT assay. Data points represent averages of three independent experiments plus standard deviations. Asterisks indicate statistical significance (P<0.04). (C) C81 cells were treated with Vehicle or different concentrations of Peptide A-8R, as shown, and with or without 5 mM NAC, as shown, and monitored DNA damage after 1 hr incubation as measured by Comet assay."}, "DNA damage in C81 cells": {"test_system": "DNA damage in C81 cells", "assay": "Comet assay (DNA damage)", "type": "cell-based", "conditions": "5 mM NAC, 2-hour pretreatment; Fig. 4C", "method": "C81 cells were treated with Peptide A-8R for 1 hour, following a 2-hour pretreatment with 5 mM NAC or Vehicle, and trypsinized, and mixed with Comet LM-Agarose (CometAssay, […]) and transferred to slides. Electrophoresis and Sybr-Green staining was carried out according to manufacturer’s protocol.\nas §3"}, "C81 cells [5]": {"test_system": "C81 cells", "assay": "DAPI DNA staining, C81 cells", "type": "cell-based", "conditions": "5 mM NAC, 2 hrs, Fig. S6", "method": "C81 cells were first treated with or without 5 mM NAC for 2 hrs and then Vehicle or different concentrations of Peptide A-8R, as shown, for 1 hr and stained with DAPI. Phase contrast images are shown. (TIF) Click here for additional data file."}, "sGC": {"test_system": "sGC", "assay": "cGMP levels in LNCaP cells (ELISA)", "type": "cell-based", "conditions": "1 nM R1881 absent or present, 20 µM peptide, cGMP EIA kit, Fig. S1B", "method": "as §2"}, "tumor cell": {"test_system": "tumor cell", "conditions": "ref [16], [17]; cited from earlier work", "text": "In view of the rapid cytotoxicity induced by Peptide A (data not shown), we examined the possibility that ROS was involved."}}, "note": "“Also recorded” adds a separate entry of the source.", "data": [{"compound": "CC1(C)N([O])C(c2ccc(C(=O)O)cc2)=[N+]([O-])C1(C)C", "note": "[C-PTIO]", "values": [{"measurement": "effect of C-PTIO on cytotoxicity of Peptide A-8R", "setting": "LNCaP cells [1]; Peptide A-8R at 50 µM", "value": "interestingly not 50 µM"}, {"measurement": "effect of C-PTIO on cytotoxicity of Peptide A-8R", "setting": "LNCaP cells [1]; Peptide A-8R at 10 and 25 µM, P<0.04", "value": "enhanced rather than relieved the cytotoxicity of Peptide A-8R at 10 and 25 µM"}]}, {"compound": "COc1cc([C@@H]2c3cc4c(cc3[C@@H](O[C@@H]3O[C@@H]5CO[C@@H](C)O[C@H]5[C@H](O)[C@H]3O)[C@H]3COC(=O)[C@H]23)OCO4)cc(OC)c1O", "note": "[Etoposide, reference compound]", "values": [{"measurement": "Caspase 3/7 activity", "setting": "[2]", "value": "induced similar levels of Caspase activity as did Peptide A-8R, but only after 24 hrs of treatment"}]}, {"compound": "O=c1cc(N2CCOCC2)oc2c(-c3ccccc3)cccc12", "note": "[LY294002, reference compound]", "values": [{"measurement": "LNCaP cell proliferation", "setting": "LNCaP cells [3]", "value": "dramatically repressed LNCaP cell proliferation"}]}, {"compound": "CC(=O)N[C@@H](CS)C(=O)O", "note": "[NAC, N-acetyl cysteine]", "values": [{"measurement": "NAC rescue of proliferation", "setting": "C81 cells [4]; 10 µM Peptide A-8R, Fig. 4B (P<0.04)", "value": "able to completely rescue the proliferation"}, {"measurement": "NAC rescue of proliferation", "setting": "C81 cells [4]; 25 µM Peptide A-8R, Fig. 4B (P<0.04)", "value": "nearly completely"}, {"measurement": "NAC rescue of proliferation", "setting": "C81 cells [4]; 50 µM Peptide A-8R, Fig. 4B", "value": "failed to significantly rescue the growth; also recorded: only marginally rescued"}, {"measurement": "NAC rescue (discussion)", "setting": "C81 cells [4]; 10 and 25 µM Peptide A-8R", "value": "strong rescue"}, {"measurement": "inhibition of Peptide A-8R-induced DNA damage", "setting": "DNA damage in C81 cells", "value": "completely blocked"}, {"measurement": "effect of NAC on cells treated with 50 µM Peptide A-8R (DAPI)", "setting": "C81 cells [5]", "value": "had no effect"}]}, {"compound": "Nc1nc2c(nc(Br)n2[C@@H]2O[C@@H]3COP(=O)(O)O[C@H]3[C@H]2O)c(=O)[nH]1", "note": "[Peptide 8-Br-cGMP]", "values": [{"measurement": "effect of added agent on Vehicle- or Peptide A-8R-treated cells (cell density)", "setting": "LNCaP cells [1]; MTT, Fig. S1C", "value": "had no effect on Vehicle- or Peptide A-8R-treated cells"}, {"measurement": "rescue of ODQ-treated cells (cell density)", "setting": "LNCaP cells [1]; MTT, ODQ-treated, Fig. S1C", "value": "able to partially rescue cells treated with the sGC enzyme inhibitor ODQ"}]}, {"compound": "C[C@]1(O)CC[C@H]2[C@@H]3CCC4=CC(=O)CCC4=C3C=C[C@@]21C", "note": "[Peptide R1881, reference compound]", "values": [{"measurement": "cGMP levels", "setting": "sGC", "value": "markedly elevated cGMP levels"}]}, {"compound": "N.N.[Cl][Pt][Cl]", "note": "[cisplatin]", "values": [{"measurement": "tumor cell death by elevating ROS", "setting": "tumor cell", "value": "induce tumor cell death by elevating levels of reactive oxygen species"}]}, {"compound": "COc1cccc2c1C(=O)c1c(O)c3c(c(O)c1C2=O)C[C@@](O)(C(=O)CO)C[C@@H]3O[C@H]1C[C@H](N)[C@H](O)[C@H](C)O1", "note": "[doxorubicin]", "values": [{"measurement": "tumor cell death by elevating ROS", "setting": "tumor cell", "value": "induce tumor cell death by elevating levels of reactive oxygen species"}]}]}
